Tests used:
PI3Ka = PI3Ka (Homo sapiens, UniProt P42336); assay: PI3Ka Scintillation Proximity Assay; type: biochemical; details: 10 μM ATP; n=2; read-out: absolute IC50
Description: Use the PI3Ka Scintillation Proximity Assay (PI3Ka SPA) to determine compound IC50 values against PI3Ka kinase. This assay assesses the activity PI3Ka in the presence of compound inhibitors by measuring incorporation of γ-P^33-ATP into phosphatidylinositol (4,5)bisphosphate (PIP2). Perform the kinase reactions in 40 μL reaction volumes in 96-well half-area flat bottom white with clear bottom polystyrene plates. Add PI3Ka to start the reaction. Final reaction conditions are 43.75 mM 2,2-bis(hydroxymethyl)-2,2′,2″-nitrilotriethanol (Bis-Tris) pH 7.0, 306 mM sodium chloride (NaCl), 1.76 mM polyethylene glycol octylphenyl ether (Triton® X-100), 10 μM adenosine triphosphate (ATP), 2.9 mM magnesium chloride (MgCl2) and 1 μCi per well γ-P^33-adenosine triphosphate (γ-P^33-ATP), 5.0 nM PI3Ka human recombinant enzyme, 0.2 mM palmitoyl-oleoyl phosphatidylserine (POPS), 0.04 mM phosphatidylinositol (4,5)bisphosphate (PIP2), 4% DMSO and serial dilutions of compound (diluted 1:3 from 20,000 to 1 nM). Incubate at RT for 90 min after adding PI3Ka. Stop the reaction with the addition of 40 μL of a stopping buffer containing 2.5 mg/mL neomycin linked beads (Amersham, Cat# RPNQ0506) and 21 mM ethylenediaminetetraacetic acid (EDTA). Centrifuge plates for 30 min at 1000 revolutions per minute (RPM) and count radioactivity with a Wallac Microbeta Trilux normalized for P^33. […]

786-O = assay: Cell proliferation assay (CellTiter-Glo), 786-O; type: cell-based; details: Homo sapiens, 786-0, 72 h
Description: (§1) Plate cells in a 96-well plate at 2000 cells/well in 100 μL of cell specific medium (for U87MG use DMEM, 10% FBS, 25 mM 4-(2-hydroxyethyl)-1-piperazineethanesulfonic acid (HEPES), 1.0 mM sodium pyruvate, and 0.1 mM Non Essential Amino Acids (ATCC Cat.#30-2002); for HT1080 use Eagle's MEM, 10% FBS (ATCC Cat.#30-2003); for H1975, A2780, SJSA-1 and 786-O use RPMI 1640, 10% FBS (ATCC Cat.#30-2001); for A204 use McCoy's 5A, 10% FBS (ATCC Cat.#30-2007) except in column 1 use medium only as the blank control. Incubate the plates overnight at 37° C. and 5% CO2. On the next day, prepare compound stocks at 1 mM in DMSO and serially dilute in DMSO in a 96-well round bottom polypropylene plate. Assay compounds at 10 concentrations in duplicate, 4 compounds per plate.
(§2) Transfer 4 μL of the DMSO serial dilutions to a 96 well plate and add 196 μL of culture medium to create a 10× stock for dosing. Gently transfer 11 μL of each dosing stock to the corresponding well of the cell plate resulting in a 0.2% DMSO concentration and a 111 μL final volume. […]
(§3) Prepared the CellTiter-Glo reagent (Promega, Cat: G7571) and add 100 µL to each well after the incubation is complete, homogenize the cells by mixing on an orbital shaker for 2 min and then incubate at RT for 10 min to allow the luminescent signal to stabilize. Record the luminescent raw data with a Wallac Victor V plate reader. […]

A2780 = assay: Cell proliferation assay (CellTiter-Glo), A2780; type: cell-based; details: Homo sapiens, A2780, 72 h
Description: as §1, §2, §3

[1] = test system: LXFE 1422 human tumor xenograft cells; assay: Oncotest tumor clonogenic assay, LXFE 1422; type: cell-based; details: colony formation, NSCLC LXFE 1422, squamous cell carcinoma, ud, read-out: Absolute IC50
[2] = test system: LXFL 430 human tumor xenograft cells; assay: Oncotest tumor clonogenic assay, LXFL 430; type: cell-based; details: colony formation, NSCLC LXFL 430, large cell lung carcinoma, pd, read-out: Absolute IC50
[3] = test system: OVXF 550 human tumor xenograft cells; assay: Oncotest tumor clonogenic assay, OVXF 550; type: cell-based; details: colony formation, Ovary OVXF 550, carcinoma, read-out: Absolute IC50

Chain of PI3Ka (P42336 whole entry): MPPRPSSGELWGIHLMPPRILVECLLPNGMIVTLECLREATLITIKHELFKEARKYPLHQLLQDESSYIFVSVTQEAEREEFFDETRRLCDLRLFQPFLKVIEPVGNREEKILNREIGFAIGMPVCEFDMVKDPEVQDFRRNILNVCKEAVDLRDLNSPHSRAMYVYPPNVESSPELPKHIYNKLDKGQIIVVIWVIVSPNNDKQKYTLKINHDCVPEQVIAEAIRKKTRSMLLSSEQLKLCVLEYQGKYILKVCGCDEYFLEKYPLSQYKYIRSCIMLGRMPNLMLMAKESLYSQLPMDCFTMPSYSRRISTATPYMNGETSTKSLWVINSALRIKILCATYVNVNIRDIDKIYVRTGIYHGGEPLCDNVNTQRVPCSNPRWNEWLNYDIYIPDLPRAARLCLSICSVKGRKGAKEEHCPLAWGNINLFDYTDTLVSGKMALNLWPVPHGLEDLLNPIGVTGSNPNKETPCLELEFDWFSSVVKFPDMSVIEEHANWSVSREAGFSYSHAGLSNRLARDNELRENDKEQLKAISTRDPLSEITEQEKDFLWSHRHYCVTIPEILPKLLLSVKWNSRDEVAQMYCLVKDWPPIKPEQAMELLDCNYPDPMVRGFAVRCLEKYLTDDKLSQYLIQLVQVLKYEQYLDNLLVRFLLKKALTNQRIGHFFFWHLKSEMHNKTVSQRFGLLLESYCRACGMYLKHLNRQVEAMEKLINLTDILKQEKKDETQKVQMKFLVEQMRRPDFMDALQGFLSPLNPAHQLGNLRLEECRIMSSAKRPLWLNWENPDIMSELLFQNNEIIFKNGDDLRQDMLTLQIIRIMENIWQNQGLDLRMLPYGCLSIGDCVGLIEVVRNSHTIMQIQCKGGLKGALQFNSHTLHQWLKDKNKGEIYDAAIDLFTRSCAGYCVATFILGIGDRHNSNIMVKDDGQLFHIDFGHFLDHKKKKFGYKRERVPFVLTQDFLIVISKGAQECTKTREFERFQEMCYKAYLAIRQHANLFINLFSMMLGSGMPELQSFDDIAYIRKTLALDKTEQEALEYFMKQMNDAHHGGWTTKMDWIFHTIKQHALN
Chain of PI3Ka (P27986 whole entry partner): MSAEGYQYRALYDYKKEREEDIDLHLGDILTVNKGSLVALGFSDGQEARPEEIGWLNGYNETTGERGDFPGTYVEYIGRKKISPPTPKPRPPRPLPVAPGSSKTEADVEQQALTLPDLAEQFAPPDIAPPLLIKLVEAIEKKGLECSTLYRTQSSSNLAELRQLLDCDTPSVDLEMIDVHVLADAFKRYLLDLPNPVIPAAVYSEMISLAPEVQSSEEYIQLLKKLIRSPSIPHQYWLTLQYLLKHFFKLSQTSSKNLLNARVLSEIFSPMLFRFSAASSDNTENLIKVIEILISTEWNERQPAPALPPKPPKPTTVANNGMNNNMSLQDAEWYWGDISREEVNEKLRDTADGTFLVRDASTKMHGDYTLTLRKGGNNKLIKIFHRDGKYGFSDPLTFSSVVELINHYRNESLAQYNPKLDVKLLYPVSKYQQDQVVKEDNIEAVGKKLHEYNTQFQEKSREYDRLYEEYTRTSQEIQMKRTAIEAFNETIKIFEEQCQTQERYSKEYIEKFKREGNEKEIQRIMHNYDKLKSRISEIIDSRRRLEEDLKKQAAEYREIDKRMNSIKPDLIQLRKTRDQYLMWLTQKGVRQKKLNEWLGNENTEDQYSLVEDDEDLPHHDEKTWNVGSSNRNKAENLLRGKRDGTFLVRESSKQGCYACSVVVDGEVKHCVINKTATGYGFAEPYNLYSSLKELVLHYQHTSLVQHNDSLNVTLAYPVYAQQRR

Q: With `CO[C@@H](C)Cn1c(=O)n(C)c2cnc3ccc(-c4cncc(C(C)(C)O)c4)cc3c21` [Example 1, 8-[5-(1-Hydroxy-1-methylethyl)pyridin-3-yl]-1-[(2S)-2-methoxypropyl]-3-methyl-1,3-dihydro-2H-imidazo[4,5-c]quinolin-2-one] as the molecule, how does the IC50 (PI3Ka) read?
A: 6.07 nM

Q: And the IC50 (786-O)?
A: 126 nM

Q: And the IC50 (A2780)?
A: 90 nM

Q: And the IC50 [1]?
A: 231 nM

Q: And the IC50 [2]?
A: 56 nM

Q: What about the IC50 [3] of the same molecule?
A: 28 nM
